Assay results reported in ChEMBL document CHEMBL1201862, “PubChem BioAssay data set” (2004).
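96-well plates; 48 h exposure; 5 concentrations. Endpoints by linear interpolation between flanking doses. Not reached: highest tested concentration assigned. GI50 is the concentration that inhibits growth by half.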 Activity calls are given as the source filed them. No stated cut-off is given here; in the data, active = GI50 up to about 1.1 µM and inactive = higher.

What was measured:
Assay in all cases: inhibition of tumour cell growth, NCI panel, 48 h
[1] = tested on: A498
[2] = tested on: TK-10
[3] = tested on: Hs-578T
[4] = tested on: T47D
[5] = tested on: COLO 205
[6] = tested on: A549
[7] = tested on: KM12
[8] = tested on: MOLT-4
[9] = tested on: DU-145
[10] = tested on: Malme-3M
[11] = tested on: K562
[12] = tested on: OVCAR-3
[13] = tested on: MCF7
[14] = tested on: IGROV-1
[15] = tested on: HOP-92
[16] = tested on: HCT-116
[17] = tested on: MDA-MB-435
[18] = tested on: HT-29
[19] = tested on: EKVX
[20] = tested on: SK-OV-3
[21] = tested on: RXF 393
[22] = tested on: MDA-N
[23] = tested on: NCI-H522
[24] = tested on: SR
[25] = tested on: HOP-62
[26] = tested on: MDA-MB-231
[27] = tested on: SK-MEL-2
[28] = tested on: SF-539
[29] = tested on: NCI-H23
[30] = tested on: SK-MEL-28
[31] = tested on: UACC-257
[32] = tested on: RPMI-8226
[33] = tested on: SF-268
[34] = tested on: NCI-H226
[35] = tested on: SW-620
[36] = tested on: NCI-H460
[37] = tested on: BT-549
[38] = tested on: SK-MEL-5
[39] = tested on: CCRF-CEM
[40] = tested on: OVCAR-5
[41] = tested on: SN12C
[42] = tested on: SNB-75
[43] = tested on: SF-295
[44] = tested on: NCI/ADR-RES
[45] = tested on: HCC 2998
[46] = tested on: UACC-62
[47] = tested on: OVCAR-8
[48] = tested on: CAKI-1
[49] = tested on: LOX IMVI
[50] = tested on: OVCAR-4
[51] = tested on: ACHN
[52] = tested on: U-251
[53] = tested on: M14
[54] = tested on: HL-60
[55] = tested on: 786-0
[56] = tested on: SNB-19
[57] = tested on: PC-3
[58] = tested on: HCT-15

O=C1Sc2cc3ccccc3cc2C(=O)Sc2ccc(Br)cc21 was tested, and the GI50 [1] was 19 µM (inactive), the GI50 [2] was 5.33 µM (inactive) and the GI50 [3] was 5.09 µM (inactive). For the same compound, the GI50 [4] was 3.33 µM (inactive), the GI50 [5] was 12.8 µM (inactive) and the GI50 [6] was 8.89 µM (inactive). The GI50 [7] was 7.16 µM (inactive), the GI50 [8] was 3.55 µM (inactive) and the GI50 [9] was 4.84 µM (inactive). The GI50 [10] was 11.9 µM (inactive), the GI50 [11] was 4.17 µM (inactive) and the GI50 [12] was 1.79 µM (inactive). The GI50 [13] was 4.46 µM (inactive), the GI50 [14] was 3.78 µM (inactive) and the GI50 [15] was 7.29 µM (inactive). For the same compound, the GI50 [16] was 5.45 µM (inactive), the GI50 [17] was 3.48 µM (inactive) and the GI50 [18] was 3.41 µM (inactive). For the same compound, the GI50 [19] was 14.3 µM (inactive), the GI50 [20] was 15.5 µM (inactive) and the GI50 [21] was 2.48 µM (inactive). For the same compound, the GI50 [22] was 4.51 µM (inactive), the GI50 [23] was 1.82 µM (inactive) and the GI50 [24] was 2.45 µM (inactive). For the same compound, the GI50 [25] was 6.21 µM (inactive), the GI50 [26] was 4.09 µM (inactive) and the GI50 [27] was 4.56 µM (inactive). The GI50 [28] was 7.93 µM (inactive), the GI50 [29] was 8.47 µM (inactive) and the GI50 [30] was 3.13 µM (inactive). The GI50 [31] was 5.81 µM (inactive), the GI50 [32] was 1.65 µM (inactive) and the GI50 [33] was 6.08 µM (inactive). For the same compound, the GI50 [34] was 14.9 µM (inactive), the GI50 [35] was 3.07 µM (inactive) and the GI50 [36] was 7.26 µM (inactive). The GI50 [37] was 3.29 µM (inactive), the GI50 [38] was 8.3 µM (inactive) and the GI50 [39] was 1.12 µM (active). The GI50 [40] was 11.8 µM (inactive), the GI50 [41] was 3.93 µM (inactive) and the GI50 [42] was 4.84 µM (inactive). The GI50 [43] was 13.1 µM (inactive), the GI50 [44] was 3.67 µM (inactive) and the GI50 [45] was 4.57 µM (inactive). The GI50 [46] was 4.93 µM (inactive), the GI50 [47] was 2.51 µM (inactive) and the GI50 [48] was 4.73 µM (inactive). The GI50 [49] was 1.76 µM (inactive), the GI50 [50] was 14.6 µM (inactive) and the GI50 [51] was 1.66 µM (inactive). The GI50 [52] was 2.06 µM (inactive), the GI50 [53] was 3.54 µM (inactive) and the GI50 [54] was 3.9 µM (inactive). For the same compound, the GI50 [55] was 2.07 µM (inactive), the GI50 [56] was 15.2 µM (inactive) and the GI50 [57] was 3.43 µM (inactive). The GI50 [58] was 2.43 µM.
